The record followed here is article PMC9295122, “Sialic Acid Derivatives Inhibit SiaT Transporters and Delay Bacterial Growth” (ACS Chemical Biology, 2022).

For the test, the system named is P. mirabilis strain HI4320. The experiment in a line: Bacterial growth assay in MM with Neu5Ac, P. mirabilis. The following applies: P. mirabilis HI4320, MM + Neu5Ac 3.2 mM, compound 0.5 mM. The class given is cell-based, Proteus mirabilis. Here is the method: To investigate the efficacy of compounds 3e and 3f in inhibiting the uptake of Neu5Ac, bacterial growth assays were performed on a uropathogenic P. mirabilis strain HI4320 and a clinical HA-MRSA isolate S. aureus strain COL. The goal was to verify that compounds 3e and 3f alter bacterial growth when grown on Neu5Ac as an additional carbon source. Growth alteration would indicate Neu5Ac uptake impairment, thus validating our approach.
We first addressed whether these bacteria were able to catabolize the inhibitors and potentially use them as a carbon source for growth. Each strain was grown in carbon-limited defined minimal media (MM), without any carbon source other than sodium citrate for P. mirabilis and casamino acids for S. aureus, and supplemented with 3e and 3f. […] With these promising results, bacterial growth assays were performed in MM supplemented with Neu5Ac at a concentration of 3.2 mM and with 0.5 mM of compounds 3e and 3f (Figure 6a,b). The lag phase duration was determined as the time for the initial population density to increase twofold (see the horizontal dashed lines in Figure 6a,b). […] In the case of P. mirabilis, compound 3e indicated a delay in growth (3 h, P = 0.06), while no effect was recorded for compound 3f. […]

As to `CC(=O)NC1C(OCc2cc(F)cc(F)c2)CC(O)(C(=O)O)OC1C(O)C(O)CO` (centres unmarked) [Compound 3e], the “delay in growth (lag phase)” value came out at 3 h.
Take `CC(=O)NC1C(OCc2cc(Br)cc(Br)c2)CC(O)(C(=O)O)OC1C(O)C(O)CO` (centres unmarked) [Compound 3f]: the “delay in growth (lag phase)” value was “no effect”.
